Seven compounds from patent US9249129B2, “Morpholino substituted urea derivatives as mTOR inhibitors” (CELLZOME LIMITED, priority 2010, dated 2016) can be followed below.

Experiment in all cases: kinobeads assay with mass spectrometry detection of kinases (kinase selectivity profile)
Assay type in all cases: binding

The target in experiment [1] is T1, kinases (kinome) (Homo sapiens, UniProt Q16512).
T1 construct: determined in kinobeads assays with mass spectrometry detection of kinases as described previously; endogenous in cells; host or cells: cell lysate
Particulars: PKN1 (AGC), IPI00412672. An excerpt:
(§1) The protein kinase complement of the human genome (the kinome) was described previously (Manning et al., 2002. Science 298(5600):1912-1934). Sequence accession numbers are defined by the International Protein Index (IPI) (Kersey et al., 2004. Proteomics 4(7):1985-1988).

For experiment [2], the target named is T2, kinases (kinome) (Homo sapiens, UniProt P48736).
T2 construct: determined in kinobeads assays with mass spectrometry detection of kinases as described previously; endogenous in cells; host or cells: cell lysate
Particulars: PIK3Cg (Lipid Kinase), IPI00292690.
Source text: as §1

Experiment [3] addresses T3, kinases (kinome) (Homo sapiens, UniProt P10398).
T3 construct: determined in kinobeads assays with mass spectrometry detection of kinases as described previously; endogenous in cells; host or cells: cell lysate
T3 sequence (P10398 1-606): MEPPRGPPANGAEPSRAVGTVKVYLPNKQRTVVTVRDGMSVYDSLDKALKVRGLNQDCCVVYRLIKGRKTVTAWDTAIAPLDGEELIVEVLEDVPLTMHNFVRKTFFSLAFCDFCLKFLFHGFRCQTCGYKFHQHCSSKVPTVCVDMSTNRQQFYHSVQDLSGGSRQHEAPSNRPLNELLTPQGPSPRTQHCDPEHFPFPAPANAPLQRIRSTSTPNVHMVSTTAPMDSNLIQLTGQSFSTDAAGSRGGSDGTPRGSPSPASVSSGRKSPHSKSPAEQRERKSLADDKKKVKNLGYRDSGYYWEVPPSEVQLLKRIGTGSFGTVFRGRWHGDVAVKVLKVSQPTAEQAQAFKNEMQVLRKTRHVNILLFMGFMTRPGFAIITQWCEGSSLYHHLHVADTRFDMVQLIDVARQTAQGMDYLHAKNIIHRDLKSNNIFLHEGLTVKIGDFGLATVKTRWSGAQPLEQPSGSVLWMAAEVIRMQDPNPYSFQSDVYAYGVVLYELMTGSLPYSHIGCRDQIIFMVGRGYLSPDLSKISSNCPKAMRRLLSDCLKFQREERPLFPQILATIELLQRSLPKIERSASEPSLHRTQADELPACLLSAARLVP
Particulars: ARAF (TKL), IPI00020578.
Source text: as §1

Experiment [4] deals with T4, kinases (kinome) (Homo sapiens, UniProt Q15569).
T4 construct: determined in kinobeads assays with mass spectrometry detection of kinases as described previously; endogenous in cells; host or cells: cell lysate
T4 sequence (Q15569 whole entry): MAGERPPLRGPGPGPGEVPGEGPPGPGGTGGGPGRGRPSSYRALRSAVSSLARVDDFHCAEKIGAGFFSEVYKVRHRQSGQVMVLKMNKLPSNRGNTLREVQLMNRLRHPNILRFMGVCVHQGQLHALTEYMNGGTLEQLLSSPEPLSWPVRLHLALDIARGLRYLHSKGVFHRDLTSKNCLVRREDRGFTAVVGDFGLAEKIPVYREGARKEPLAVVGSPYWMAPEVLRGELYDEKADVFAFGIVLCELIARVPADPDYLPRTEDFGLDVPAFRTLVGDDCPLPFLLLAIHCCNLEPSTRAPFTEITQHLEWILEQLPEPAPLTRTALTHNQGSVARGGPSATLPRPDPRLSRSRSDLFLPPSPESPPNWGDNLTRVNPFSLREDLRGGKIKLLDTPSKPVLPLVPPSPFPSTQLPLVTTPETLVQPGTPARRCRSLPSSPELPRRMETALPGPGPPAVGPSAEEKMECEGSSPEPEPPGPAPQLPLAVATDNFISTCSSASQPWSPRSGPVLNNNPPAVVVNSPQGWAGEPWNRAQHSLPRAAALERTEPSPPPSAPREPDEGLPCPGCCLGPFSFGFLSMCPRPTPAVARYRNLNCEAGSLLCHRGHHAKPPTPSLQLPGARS
Particulars: TESK1 (TKL), IPI00018182.
Source text: as §1

Experiment [5] addresses T5, kinases (kinome) (Homo sapiens, UniProt P25440).
T5 construct: determined in kinobeads assays with mass spectrometry detection of kinases as described previously; endogenous in cells; host or cells: cell lysate
Particulars: BRD2 (Atypical), IPI00440502.
Source text: as §1

The target in experiment [6] is T6, kinases (kinome) (Homo sapiens, UniProt P78527).
T6 construct: determined in kinobeads assays with mass spectrometry detection of kinases as described previously; endogenous in cells; host or cells: cell lysate
T6 sequence (P78527 whole entry): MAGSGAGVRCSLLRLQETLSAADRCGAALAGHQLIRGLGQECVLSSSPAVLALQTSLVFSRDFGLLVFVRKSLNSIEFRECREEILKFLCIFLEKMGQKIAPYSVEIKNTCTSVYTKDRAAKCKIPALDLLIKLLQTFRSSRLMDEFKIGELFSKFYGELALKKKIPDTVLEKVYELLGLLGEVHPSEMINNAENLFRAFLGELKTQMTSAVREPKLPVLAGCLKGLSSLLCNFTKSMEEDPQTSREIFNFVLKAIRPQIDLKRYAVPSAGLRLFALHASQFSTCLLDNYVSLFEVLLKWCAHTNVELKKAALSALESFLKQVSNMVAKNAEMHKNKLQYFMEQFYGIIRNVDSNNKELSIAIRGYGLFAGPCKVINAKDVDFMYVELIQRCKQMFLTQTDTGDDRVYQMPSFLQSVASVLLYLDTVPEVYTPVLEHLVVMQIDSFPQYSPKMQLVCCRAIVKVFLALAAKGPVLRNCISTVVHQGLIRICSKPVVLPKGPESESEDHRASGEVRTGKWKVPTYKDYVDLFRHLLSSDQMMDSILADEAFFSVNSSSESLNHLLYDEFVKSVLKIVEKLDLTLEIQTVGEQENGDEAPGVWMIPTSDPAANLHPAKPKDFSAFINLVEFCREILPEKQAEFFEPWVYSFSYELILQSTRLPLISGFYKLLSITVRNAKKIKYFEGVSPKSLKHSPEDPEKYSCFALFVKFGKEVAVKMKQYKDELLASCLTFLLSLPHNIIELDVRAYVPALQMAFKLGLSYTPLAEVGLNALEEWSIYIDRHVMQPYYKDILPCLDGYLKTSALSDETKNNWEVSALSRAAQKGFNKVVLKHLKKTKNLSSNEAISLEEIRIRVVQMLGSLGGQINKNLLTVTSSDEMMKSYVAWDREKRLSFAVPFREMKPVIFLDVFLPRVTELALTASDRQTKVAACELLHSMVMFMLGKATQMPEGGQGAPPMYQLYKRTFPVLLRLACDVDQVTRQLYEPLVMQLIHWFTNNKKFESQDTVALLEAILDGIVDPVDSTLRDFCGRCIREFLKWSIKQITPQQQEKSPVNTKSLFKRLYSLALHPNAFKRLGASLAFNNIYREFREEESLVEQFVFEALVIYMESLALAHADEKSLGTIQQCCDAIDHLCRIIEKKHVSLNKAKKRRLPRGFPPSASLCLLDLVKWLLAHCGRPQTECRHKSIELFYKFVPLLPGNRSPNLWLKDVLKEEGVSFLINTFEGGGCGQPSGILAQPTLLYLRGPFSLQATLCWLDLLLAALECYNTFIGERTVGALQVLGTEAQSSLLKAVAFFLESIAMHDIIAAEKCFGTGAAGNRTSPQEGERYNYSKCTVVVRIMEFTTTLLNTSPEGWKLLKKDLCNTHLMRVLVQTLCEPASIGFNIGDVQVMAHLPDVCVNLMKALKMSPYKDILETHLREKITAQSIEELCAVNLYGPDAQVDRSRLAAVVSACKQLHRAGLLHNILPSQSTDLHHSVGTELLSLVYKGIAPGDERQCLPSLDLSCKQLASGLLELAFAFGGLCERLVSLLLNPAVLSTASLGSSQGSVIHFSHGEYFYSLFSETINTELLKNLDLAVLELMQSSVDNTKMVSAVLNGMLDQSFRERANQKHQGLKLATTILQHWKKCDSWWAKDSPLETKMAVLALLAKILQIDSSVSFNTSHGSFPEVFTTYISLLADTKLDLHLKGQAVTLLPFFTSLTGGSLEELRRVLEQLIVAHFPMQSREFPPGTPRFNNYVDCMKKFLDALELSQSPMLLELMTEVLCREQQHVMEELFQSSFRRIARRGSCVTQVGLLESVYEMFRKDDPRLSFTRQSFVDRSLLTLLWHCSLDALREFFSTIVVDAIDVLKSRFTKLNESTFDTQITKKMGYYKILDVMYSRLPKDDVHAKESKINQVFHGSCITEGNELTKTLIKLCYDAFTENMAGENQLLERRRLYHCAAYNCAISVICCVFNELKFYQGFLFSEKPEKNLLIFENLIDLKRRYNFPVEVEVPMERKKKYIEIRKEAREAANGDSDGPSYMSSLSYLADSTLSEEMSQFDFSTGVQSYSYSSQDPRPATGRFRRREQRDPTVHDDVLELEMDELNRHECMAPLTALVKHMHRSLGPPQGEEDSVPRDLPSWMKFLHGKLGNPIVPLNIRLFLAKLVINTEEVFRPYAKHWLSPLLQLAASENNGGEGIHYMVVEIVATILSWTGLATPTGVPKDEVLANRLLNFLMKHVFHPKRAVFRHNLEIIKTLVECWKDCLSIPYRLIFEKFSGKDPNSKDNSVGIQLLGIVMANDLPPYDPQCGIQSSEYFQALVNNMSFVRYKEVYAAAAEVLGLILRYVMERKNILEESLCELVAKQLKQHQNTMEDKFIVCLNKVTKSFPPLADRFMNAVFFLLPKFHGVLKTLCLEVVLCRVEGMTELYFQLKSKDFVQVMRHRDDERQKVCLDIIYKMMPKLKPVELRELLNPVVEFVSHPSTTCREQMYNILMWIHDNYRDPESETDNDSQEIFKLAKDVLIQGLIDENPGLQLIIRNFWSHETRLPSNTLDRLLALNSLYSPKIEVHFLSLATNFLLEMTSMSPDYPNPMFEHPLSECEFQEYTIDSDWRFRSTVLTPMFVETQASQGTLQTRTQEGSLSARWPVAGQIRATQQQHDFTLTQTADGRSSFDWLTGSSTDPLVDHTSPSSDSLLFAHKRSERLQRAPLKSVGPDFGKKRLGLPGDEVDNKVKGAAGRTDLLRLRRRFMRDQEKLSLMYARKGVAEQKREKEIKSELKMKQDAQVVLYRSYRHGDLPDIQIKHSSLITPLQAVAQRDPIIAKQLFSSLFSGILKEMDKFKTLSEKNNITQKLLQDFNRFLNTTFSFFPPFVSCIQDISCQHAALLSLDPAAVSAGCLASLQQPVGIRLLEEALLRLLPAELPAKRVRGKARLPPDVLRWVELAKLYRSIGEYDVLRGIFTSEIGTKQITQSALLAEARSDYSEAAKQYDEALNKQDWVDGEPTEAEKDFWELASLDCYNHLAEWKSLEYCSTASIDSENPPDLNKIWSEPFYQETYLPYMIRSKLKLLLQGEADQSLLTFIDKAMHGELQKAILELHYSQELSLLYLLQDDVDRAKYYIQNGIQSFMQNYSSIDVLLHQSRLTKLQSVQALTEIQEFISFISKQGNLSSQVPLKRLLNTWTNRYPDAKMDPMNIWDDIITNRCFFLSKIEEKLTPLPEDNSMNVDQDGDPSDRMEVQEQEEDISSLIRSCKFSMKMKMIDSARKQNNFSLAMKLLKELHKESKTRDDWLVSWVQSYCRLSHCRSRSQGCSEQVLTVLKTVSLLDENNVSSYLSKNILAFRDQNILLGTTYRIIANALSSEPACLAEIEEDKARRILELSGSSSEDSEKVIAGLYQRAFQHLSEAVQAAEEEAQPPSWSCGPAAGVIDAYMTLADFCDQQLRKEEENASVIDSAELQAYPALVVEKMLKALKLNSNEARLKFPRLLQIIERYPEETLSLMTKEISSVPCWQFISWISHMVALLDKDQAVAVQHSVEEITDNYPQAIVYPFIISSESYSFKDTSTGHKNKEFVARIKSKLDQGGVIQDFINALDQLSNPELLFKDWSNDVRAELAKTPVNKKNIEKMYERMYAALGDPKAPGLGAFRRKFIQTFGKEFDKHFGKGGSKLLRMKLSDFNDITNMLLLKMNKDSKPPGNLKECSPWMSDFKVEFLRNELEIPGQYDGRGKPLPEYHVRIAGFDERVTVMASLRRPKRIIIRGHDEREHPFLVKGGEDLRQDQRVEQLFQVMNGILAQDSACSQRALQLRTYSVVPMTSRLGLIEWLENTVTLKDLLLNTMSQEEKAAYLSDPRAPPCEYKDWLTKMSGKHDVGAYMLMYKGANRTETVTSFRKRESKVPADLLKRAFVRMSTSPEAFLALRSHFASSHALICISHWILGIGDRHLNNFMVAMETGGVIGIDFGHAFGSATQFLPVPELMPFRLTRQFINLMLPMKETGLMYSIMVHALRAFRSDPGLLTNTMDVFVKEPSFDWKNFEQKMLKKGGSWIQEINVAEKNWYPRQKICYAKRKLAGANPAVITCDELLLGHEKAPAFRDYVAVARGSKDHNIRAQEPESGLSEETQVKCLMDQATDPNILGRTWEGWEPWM
Particulars: DNAPK (Atypical), IPI00296337.
Source text: as §1

For experiment [7], the target named is T7, kinases (kinome) (Homo sapiens, UniProt Q07912).
T7 construct: determined in kinobeads assays with mass spectrometry detection of kinases as described previously; endogenous in cells; host or cells: cell lysate
Particulars: ACK (TK), IPI00552750.
Source text: as §1

The target of experiment [8] is T8, kinases (kinome) (Homo sapiens, UniProt P15056).
T8 construct: determined in kinobeads assays with mass spectrometry detection of kinases as described previously; endogenous in cells; host or cells: cell lysate
Particulars: BRAF (TKL), IPI00303797.
Source text: as §1

Experiment [9] deals with T9, kinases (kinome) (Homo sapiens, UniProt P50750).
T9 construct: determined in kinobeads assays with mass spectrometry detection of kinases as described previously; endogenous in cells; host or cells: cell lysate
T9 sequence (P50750 whole entry): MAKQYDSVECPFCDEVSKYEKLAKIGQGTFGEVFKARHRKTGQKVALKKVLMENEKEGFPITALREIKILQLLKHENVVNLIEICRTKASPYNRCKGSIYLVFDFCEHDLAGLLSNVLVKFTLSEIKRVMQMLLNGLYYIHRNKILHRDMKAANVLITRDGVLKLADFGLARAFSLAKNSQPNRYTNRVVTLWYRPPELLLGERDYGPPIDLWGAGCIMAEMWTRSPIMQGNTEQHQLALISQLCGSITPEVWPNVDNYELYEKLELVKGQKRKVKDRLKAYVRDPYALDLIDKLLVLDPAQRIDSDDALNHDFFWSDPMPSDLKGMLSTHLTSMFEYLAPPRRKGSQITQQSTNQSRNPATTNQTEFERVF
Particulars: CDK9 (CMGC), IPI00552413.
Source text: as §1

Experiment [10] addresses T10, kinases (kinome) (Homo sapiens, UniProt P42336).
T10 construct: determined in kinobeads assays with mass spectrometry detection of kinases as described previously; endogenous in cells; host or cells: cell lysate
Particulars: PIK3Ca (Lipid Kinase), IPI00031386.
Source text: as §1

In experiment [11] the target is T11, kinases (kinome) (Homo sapiens, UniProt P42345).
T11 construct: determined in kinobeads assays with mass spectrometry detection of kinases as described previously; endogenous in cells; host or cells: cell lysate
Particulars: mTOR (Atypical), IPI00031410; 0.1 μM ranges.
Source text: as §1

For experiment [12], the target named is kinases (kinome) (Homo sapiens, UniProt Q15418). Particulars: RSK3 (AGC), IPI00477982.
Source text: as §1

In experiment [13] the target is T12, kinases (kinome) (Homo sapiens, UniProt P07947).
T12 construct: determined in kinobeads assays with mass spectrometry detection of kinases as described previously; endogenous in cells; host or cells: cell lysate
Particulars: YES (TK), IPI00013981.
Source text: as §1

For experiment [14], the target named is T13, kinases (kinome) (Homo sapiens, UniProt P19784).
T13 construct: determined in kinobeads assays with mass spectrometry detection of kinases as described previously; endogenous in cells; host or cells: cell lysate
Particulars: CK2a2 (Other), IPI00020602.
Source text: as §1

For experiment [15], the target named is T14, kinases (kinome) (Homo sapiens, UniProt P36897).
T14 construct: determined in kinobeads assays with mass spectrometry detection of kinases as described previously; endogenous in cells; host or cells: cell lysate
T14 sequence (P36897 34-503): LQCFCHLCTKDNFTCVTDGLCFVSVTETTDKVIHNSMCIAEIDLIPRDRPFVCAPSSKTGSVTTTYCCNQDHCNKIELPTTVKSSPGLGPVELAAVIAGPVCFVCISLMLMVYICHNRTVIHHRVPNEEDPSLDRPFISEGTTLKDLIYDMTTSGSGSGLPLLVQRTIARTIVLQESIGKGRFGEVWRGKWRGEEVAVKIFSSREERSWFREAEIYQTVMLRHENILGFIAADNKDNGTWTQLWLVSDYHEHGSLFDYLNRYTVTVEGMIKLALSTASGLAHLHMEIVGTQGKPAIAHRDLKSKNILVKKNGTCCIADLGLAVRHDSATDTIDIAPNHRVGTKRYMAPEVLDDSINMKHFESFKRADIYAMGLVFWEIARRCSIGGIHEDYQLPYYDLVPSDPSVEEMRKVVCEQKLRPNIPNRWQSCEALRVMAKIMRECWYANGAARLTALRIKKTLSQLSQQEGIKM
Particulars: TGFbR1 (TKL), IPI00005733.
Source text: as §1

In experiment [16] the target is T15, kinases (kinome) (Homo sapiens, UniProt Q13554).
T15 construct: determined in kinobeads assays with mass spectrometry detection of kinases as described previously; endogenous in cells; host or cells: cell lysate
Particulars: CaMK2b (CAMK), IPI00221305.
Source text: as §1

As a reminder, the IC50 is the concentration that gives 50% inhibition. A lower IC50 goes with greater potency in that assay. Regarding `C[C@H]1COCCN1c1nc(-c2ccc(NC(=O)NC3CC3)cc2)cc(-c2ccccc2S(C)(=O)=O)n1` [Example 4, (S)-1-cyclopropyl-3-(4-(2-(3-methylmorpholino)-6-(2-(methylsulfonyl)phenyl)pyrimidin-4-yl)phenyl)urea], the IC50 on kinases (kinome) [1], against kinases (kinome) [2], against kinases (kinome) [3], on kinases (kinome) [4], against kinases (kinome) [5] and on kinases (kinome) [6] was more than 10 µM throughout. Besides, the IC50 against kinases (kinome) [7] is more than 10 µM; against kinases (kinome) [8], more than 10 µM; on kinases (kinome) [9], more than 10 µM; against kinases (kinome) [10] it was more than 10 µM; on kinases (kinome) [11] it was 0.3 to 0.4 µM; against kinases (kinome) [12] it was more than 10 µM. The IC50 against kinases (kinome) [13], on kinases (kinome) [14] and at kinases (kinome) [15] was more than 10 µM in each case.

In the case of `C[C@H]1COCCN1c1cc(-c2ccccc2S(C)(=O)=O)nc(-c2ccc(NC(=O)NC3CC3)cc2)n1` [Example 6, (S)-1-cyclopropyl-3-(4-(4-(3-methylmorpholino)-6-(2-(methylsulfonyl)phenyl)pyrimidin-2-yl)phenyl)urea], the IC50 at kinases (kinome) [1], against kinases (kinome) [2], at kinases (kinome) [16], on kinases (kinome) [3], on kinases (kinome) [4] and against kinases (kinome) [5] was more than 10 µM throughout. Also, the concentration for half-maximal inhibition (IC50) against kinases (kinome) [6] was more than 10 µM; against kinases (kinome) [7] it was more than 10 µM; against kinases (kinome) [8], more than 10 µM; against kinases (kinome) [9], more than 10 µM; against kinases (kinome) [10] it was more than 10 µM; against kinases (kinome) [11], 0.1 to 0.2 µM. In addition, the IC50 against kinases (kinome) [12], against kinases (kinome) [13], against kinases (kinome) [14] and against kinases (kinome) [15] was more than 10 µM each time.

Take `CCNC(=O)Nc1ccc(-c2cc(-c3ccccc3C#N)nc(N3CCOC[C@@H]3C)n2)cc1` [Example 8, (S)-1-(4-(6-(2-cyanophenyl)-2-(3-methylmorpholino)pyrimidin-4-yl)phenyl)-3-ethylurea]: the IC50 against kinases (kinome) [1], against kinases (kinome) [2], at kinases (kinome) [16], on kinases (kinome) [3], against kinases (kinome) [4] and against kinases (kinome) [5] was more than 10 µM each time. The IC50 was more than 10 µM against kinases (kinome) [6]; more than 10 µM against kinases (kinome) [7]; more than 10 µM on kinases (kinome) [8]; more than 10 µM on kinases (kinome) [9]; more than 10 µM against kinases (kinome) [10]; 0.1 to 0.2 µM at kinases (kinome) [11]. Further, the IC50 against kinases (kinome) [12], at kinases (kinome) [13], against kinases (kinome) [14] and against kinases (kinome) [15] was more than 10 µM in each case.

For `C[C@H]1COCCN1c1nc(-c2ccc(NC(=O)NC3CC3)cc2)cc(-c2cc(F)ccc2S(C)(=O)=O)n1` [Example 40, (S)-1-cyclopropyl-3-(4-(6-(5-fluoro-2-(methylsulfonyl)phenyl)-2-(3-methylmorpholino)pyrimidin-4-yl)phenyl)urea], the IC50 on kinases (kinome) [1], at kinases (kinome) [2], on kinases (kinome) [16], on kinases (kinome) [3], at kinases (kinome) [4] and on kinases (kinome) [5] was more than 10 µM each time. Moreover, the IC50 against kinases (kinome) [6] is more than 10 µM; against kinases (kinome) [7], more than 10 µM; against kinases (kinome) [8] it was more than 10 µM; at kinases (kinome) [9], more than 10 µM; on kinases (kinome) [10], more than 10 µM; against kinases (kinome) [11], 0.1 to 0.2 µM. The IC50 at kinases (kinome) [12], against kinases (kinome) [13], against kinases (kinome) [14] and at kinases (kinome) [15] was more than 10 µM in each case.

`C[C@H]1COCCN1c1cc(-c2ccccn2)nc(-c2ccc(NC(=O)NCCO)cc2)n1` [Example 43, (S)-1-(2-hydroxyethyl)-3-(4-(4-(3-methylmorpholino)-6-(pyridin-2-yl)pyrimidin-2-yl)phenyl)urea]: the IC50 against kinases (kinome) [1], on kinases (kinome) [2], at kinases (kinome) [16], on kinases (kinome) [3], on kinases (kinome) [4] and against kinases (kinome) [5] was more than 10 µM in each case. Further, the IC50 is more than 10 µM against kinases (kinome) [6]; more than 10 µM at kinases (kinome) [7]; more than 10 µM against kinases (kinome) [8]; more than 10 µM against kinases (kinome) [9]; more than 10 µM on kinases (kinome) [10]; 0.1 to 0.2 µM against kinases (kinome) [11]. Further, the IC50 against kinases (kinome) [12], on kinases (kinome) [13], at kinases (kinome) [14] and on kinases (kinome) [15] was more than 10 µM throughout.

In the case of `C[C@H]1COCCN1c1nc(-c2ccc(NC(=O)NC3CC3)cc2)cc(-c2cccnc2S(C)(=O)=O)n1` [Example 46, (S)-1-cyclopropyl-3-(4-(2-(3-methylmorpholino)-6-(2-(methylsulfonyl)pyridin-3-yl)pyrimidin-4-yl)phenyl)urea], the IC50 against kinases (kinome) [1], on kinases (kinome) [2], on kinases (kinome) [16], against kinases (kinome) [3], on kinases (kinome) [4] and at kinases (kinome) [5] was more than 10 µM throughout. The IC50 against kinases (kinome) [6] was more than 10 µM; at kinases (kinome) [7], more than 10 µM; against kinases (kinome) [8], more than 10 µM; at kinases (kinome) [9] it was more than 10 µM; on kinases (kinome) [10] it was more than 10 µM; on kinases (kinome) [11], 0.2 to 0.3 µM. Moreover, the IC50 against kinases (kinome) [12], against kinases (kinome) [13], on kinases (kinome) [14] and on kinases (kinome) [15] was more than 10 µM in each case.

As for `C[C@H]1COCCN1c1nc(-c2ccc(NC(=O)N[C@H]3CCC[C@@H]3O)cc2)cc(-c2cc(F)ccc2S(C)(=O)=O)n1` [Example 76, 1-(4-(6-(5-fluoro-2-(methylsulfonyl)phenyl)-2-((S)-3-methylmorpholino)pyrimidin-4-yl)phenyl)-3-((1S,2S)-2-hydroxycyclopentyl)urea], the IC50 against kinases (kinome) [1], against kinases (kinome) [2], on kinases (kinome) [16], at kinases (kinome) [3], against kinases (kinome) [5] and against kinases (kinome) [6] was more than 10 µM each time. For the same compound, the IC50 against kinases (kinome) [7] is more than 10 µM; at kinases (kinome) [8], more than 10 µM; against kinases (kinome) [9], more than 10 µM; against kinases (kinome) [10], more than 10 µM; on kinases (kinome) [11] it was 0.1 to 0.2 µM; against kinases (kinome) [12] it was more than 10 µM. For the same compound, the IC50 at kinases (kinome) [13], against kinases (kinome) [14] and on kinases (kinome) [15] was more than 10 µM in each case.
